This note sets out measurements from patent US20160129011A1, “BICYCLO 2,3-BENZODIAZEPINES AND SPIROCYCLICALLY SUBSTITUTED 2,3-BENZODIAZEPINES” (BAYER PHARMA AKTIENGESELLSCHAFT, priority 2013, published 2016).

Structures are written as SMILES.

The test system of experiment [1] is MOLM-13 cells. Kind of experiment: Cell proliferation assay (alamarBlue), MOLM-13. The experiment is classed as cell-based. To be noted: Homo sapiens, MOLM-13; acute myeloid leukaemia cell line, 96 h incubation. The method, then: In accordance with the invention, the ability of the substances to inhibit cell proliferation was determined. Cell viability was determined by means of the alamarBlue® reagent (Invitrogen) in a Victor X3 Multilabel Reader (Perkin Elmer). The excitation wavelength was 530 nm and the emission wavelength […].
The MOLM-13 cells (DSMZ, ACC 554) were sown at a concentration of 4000 cells/well in 100 μl of growth medium (RPMI1640, 10% FCS) on 96-well microtitre plates.
The MDA-MB-231 cells (DSMZ, ACC 732) were sown at a concentration of 4000 cells/well in 100 μl of growth medium (DMEM/Ham's F12 medium, 10% FCS) on 96-well microtitre plates. After overnight incubation at 37° C., the fluorescence values (CI values) were determined. Then the plates were treated with various substance dilutions (1E-5 M, 3E-6 M, 1E-6 M, 3E-7 M, 1E-7 M, 3E-8 M, 1E-8 M) and incubated at 37° C. for 72 (MV4-11, LOX-IMVI cells), 96 (MOLM-13, B16F10, […] cells), 120 (MOLP-8, KMS-12-PE cells) or 168 (LAPC-4 cells) hours. Subsequently, the fluorescence values were determined (CO values). For the data analysis, the CI values were subtracted from the CO values and the results were compared between cells which had been treated with various dilutions of the substance or only with buffer solution. This was used to calculate the IC50 values (substance concentration required for 50% inhibition of cell proliferation).
The substances were examined in the cell lines of Table 1 which, in an exemplary manner, represent the stated indications: […]
On the technique in general: Resazurin is reduced to fluorescent resorufin, in cell work by metabolically active cells.

For experiment [2], the target named is T1, BRD4 (BD1) (Homo sapiens, UniProt O60885).
T1 construct: longer constructs also being possible, preferably amino acids 44-168; made in house; host or cells: E. coli
Description: Binding assay BRD4/acetylated peptide H4 (TR-FRET protein-protein interaction assay). The settings on record: BRD4 (BD1) / acetylated histone H4 peptide. The text has this: To assess the BRD4 binding strength of the substances described in this application, the ability thereof to inhibit the interaction between BRD4 (BD1) and acetylated histone H4 in a dose-dependent manner was quantified.
For this purpose, a time-resolved fluorescence resonance energy transfer (TR-FRET) assay was used, which measures the binding between N-terminally His6-tagged BRD4 (BD1) (amino acids 67-152, longer constructs also being possible, preferably amino acids 44-168) and a synthetic acetylated histone H4 (Ac—H4) peptide with sequence GRGK(Ac)GGK(Ac)GLGK(Ac)GGAK(Ac)RHGSGSK-biotin. The recombinant BRD4 protein produced in-house according to Filippakopoulos et al., Nature, 2010, 468:1119-1123 was expressed in E. coli and purified by means of (Ni-NTA) affinity and (Sephadex G-75) size exclusion chromatography. The Ac—H4 peptide can be purchased, for example, from Biosyntan (Berlin, Germany).
In the assay, typically 11 different concentrations of each substance (0.1 nM, 0.33 nM, 1.1 nM, 3.8 nM, 13 nM, 44 nM, 0.15 μM, 0.51 μM, 1.7 μM, 5.9 μM and 20 μM) were analysed as duplicates on the same microtitre plate. For this purpose, 100-fold concentrated solutions in DMSO were prepared by serial dilutions (1:3.4) of a 2 mM stock solution into a clear, 384-well microtitre plate (Greiner Bio-One, Frickenhausen, Germany). From this, 50 nl were transferred into a black test plate (Greiner Bio-One, Frickenhausen, Germany). The test was started by the addition of 2 μl of a 2.5-fold concentrated BRD4 solution (final concentration typically 10 nM in the 5 μl of reaction volume) in aqueous assay buffer [50 mM HEPES pH 7.5, 50 mM sodium chloride (NaCl), 0.25 mM CHAPS and 0.05% serum albumin (BSA)] to the substances in the test plate. This was followed by a 10-minute incubation step at 22° C. for the pre-equilibration of putative complexes between BRD4 and the substances.
The mixture was then incubated in the dark at 22° C. for one hour and then at 4° C. for at least 3 hours and for no longer than overnight. The formation of BRD4/Ac—H4 complexes was determined by the measurement of the resonance energy transfer from the streptavidin-Eu cryptate to the anti-6His-XL665 antibody present in the reaction. For this purpose, the fluorescence emission was measured at 620 nm and 665 nm after excitation at 330-350 nm in a TR-FRET measuring instrument, for example a Rubystar or Pherastar (both from BMG Lab Technologies, Offenburg, Germany) or a Viewlux (Perkin-Elmer). The ratio of the emissions at 665 nm and at […] was taken as an indicator of the amount of BRD4/Ac—H4 complexes formed.
The data (ratios) obtained were normalized, with 0% inhibition corresponding to the mean from the measurements for a set of controls (typically 32 data points) in which all the reagents were present. In these, in place of test substances, 50 nl of DMSO (100%) were used. Inhibition of 100% corresponded to the mean from the measurements for a set of controls (typically 32 data points) in which all the reagents except BRD4 were present. The IC50 was determined by regression analysis based on a 4-parameter equation (minimum, maximum, IC50, Hill; Y=max+(min−max)/(1+(X/IC50)^Hill)).
(Time-resolved FRET reads energy transfer from a long-lived donor to a nearby acceptor.)

In general, IC50 refers to the concentration that gives 50% inhibition. High values mean lower potency, low ones higher potency. As to `CNC(=O)N1N=C(c2ccc(N3CC4(CCS4(=O)=O)C3)cc2)c2cc(OC)c(OC)cc2CC1C` (racemic) [Example 3, 1-[4-(1,1-dioxido-1-thia-6-azaspiro[3.3]hept-6-yl)phenyl]-7,8-dimethoxy-N,4-dimethyl-4,5-dihydro-3H-2,3-benzodiazepine-3-carboxamide], the IC50 in experiment [1] is 0.15 µM; in experiment [2], 0.02 µM.
Consider `CNC(=O)N1N=C(c2ccc(N3C[C@H]4CC[C@@H](C3)O4)cc2)c2cc(OC)c(OC)cc2CC1C` (mixture of isomers) [Example 4, (±)-7,8-dimethoxy-N,4-dimethyl-1-[4-(8-oxa-3-azabicyclo[3.2.1]oct-3-yl)phenyl]-4,5-dihydro-3H-2,3-benzodiazepine-3-carboxamide], for which the IC50 in experiment [1] is 0.1 µM; in experiment [2], 0.03 µM.
Consider `CNC(=O)N1N=C(c2ccc(N3CC4(COC4)C3)cc2)c2cc(OC)c(OC)cc2CC1C` (racemic) [Example 5, (±)-7,8-dimethoxy-N,4-dimethyl-1-[4-(2-oxa-6-azaspiro[3.3]hept-6-yl)phenyl]-4,5-dihydro-3H-2,3-benzodiazepine-3-carboxamide], for which the half-maximal inhibitory concentration (IC50) in experiment [1] stood at 0.21 µM; in experiment [2] it was 0.02 µM.
In the same order, the values of `CNC(=O)N1N=C(c2ccc(N3[C@@H]4CC[C@H]3CC(=O)C4)cc2)c2cc(OC)c(OC)cc2CC1C` (mixture of isomers) [Example 6, (±)-7,8-dimethoxy-N,4-dimethyl-1-[4-(3-oxo-8-azabicyclo[3.2.1]oct-8-yl)phenyl]-4,5-dihydro-3H-2,3-benzodiazepine-3-carboxamide] are 0.18 µM and 0.03 µM.
On to `CNC(=O)N1N=C(c2cccc(N3CC4CCC(C3)O4)c2)c2cc(OC)c(OC)cc2CC1C` (racemic) [Example 13, (±)-7,8-dimethoxy-N,4-dimethyl-1-[3-(8-oxa-3-azabicyclo[3.2.1]oct-3-yl)phenyl]-4,5-dihydro-3H-2,3-benzodiazepine-3-carboxamide], for which the IC50 in experiment [1] came out at 0.56 µM; in experiment [2] it was 0.09 µM.
With `CNC(=O)N1N=C(c2ccc(-c3ccc4c(c3)OCCO4)cc2)c2cc(OC)c(OC)cc2CC1C` (racemic) [Example 21, (±)-1-[4-(2,3-dihydro-1,4-benzodioxin-6-yl)phenyl]-7,8-dimethoxy-N,4-dimethyl-4,5-dihydro-3H-2,3-benzodiazepine-3-carboxamide], the values for the IC50 in experiment [1] and in experiment [2] were 0.71 µM and 0.09 µM, respectively.
On the same counts, the results for `CNC(=O)N1N=C(c2ccc(-c3ccc4c(c3)CCO4)cc2)c2cc(OC)c(OC)cc2CC1C` (racemic) [Example 22, (±)-1-[4-(2,3-dihydro-1-benzofuran-5-yl)phenyl]-7,8-dimethoxy-N,4-dimethyl-4,5-dihydro-3H-2,3-benzodiazepine-3-carboxamide] are 0.55 µM and 0.05 µM.
For the molecule `CNC(=O)N1N=C(c2ccc(-c3cccc4ncccc34)cc2)c2cc(OC)c(OC)cc2CC1C` (racemic) [Example 23, (±)-1-[4-(quinolin-5-yl)phenyl]-7,8-dimethoxy-N,4-dimethyl-4,5-dihydro-3H-2,3-benzodiazepine-3-carboxamide], the IC50 in experiment [1] came out at 0.25 µM; in experiment [2], 0.06 µM.
On the same counts, the results for `CNC(=O)N1N=C(c2ccc(-c3ccnc4ccccc34)cc2)c2cc(OC)c(OC)cc2CC1C` (racemic) [Example 24, (±)-1-[4-(quinolin-4-yl)phenyl]-7,8-dimethoxy-N,4-dimethyl-4,5-dihydro-3H-2,3-benzodiazepine-3-carboxamide] are 0.39 µM and 0.07 µM.
On the same counts, the results for `CNC(=O)N1N=C(c2ccc(-c3ccc4c(ccn4C)c3)cc2)c2cc(OC)c(OC)cc2CC1C` (racemic) [Example 25, (±)-7,8-dimethoxy-N,4-dimethyl-1-[4-(1-methyl-1H-indol-5-yl)phenyl]-4,5-dihydro-3H-2,3-benzodiazepine-3-carboxamide] are 0.53 µM and 0.05 µM.
In the same order, the values of `CNC(=O)N1N=C(c2ccc(-c3cncc4ccccc34)cc2)c2cc(OC)c(OC)cc2CC1C` (racemic) [Example 26, (±)-1-[4-(isoquinolin-4-yl)phenyl]-7,8-dimethoxy-N,4-dimethyl-4,5-dihydro-3H-2,3-benzodiazepine-3-carboxamide] are 0.55 µM and 0.06 µM.
As to `CNC(=O)N1N=C(c2ccc(N3C(=O)C4CCC3C4)cc2)c2cc(OC)c(OC)cc2CC1C` (stereo not drawn) [Example 1, [1S-(1R*,4S*)]-7,8-Dimethoxy-N,4-dimethyl-1-[4-(3-oxo-2-azabicyclo[2.2.1]hept-2-yl)phenyl]-4,5-dihydro-3H-2,3-benzodiazepine-3-carboxamide], the IC50 was found to be 0.14 µM in experiment [1] and 0.03 µM in experiment [2].
In the case of `CNC(=O)N1N=C(c2ccc(N3C[C@H]4CC[C@@H](C3)O4)cc2)c2cc(OC)c(OC)cc2C[C@H]1C` [Example 4.1, (4R)-7,8-dimethoxy-N,4-dimethyl-1-[4-(8-oxa-3-azabicyclo[3.2.1]oct-3-yl)phenyl]-4,5-dihydro-3H-2,3-benzodiazepine-3-carboxamide], the IC50 turned out to be 6.09 µM in experiment [1] and 1.85 µM in experiment [2].
On the same counts, the results for `CNC(=O)N1N=C(c2ccc(N3CC4(COC4)C3)cc2)c2cc(OC)c(OC)cc2C[C@@H]1C` [Example 5.1, (4S)-7,8-dimethoxy-N,4-dimethyl-1-[4-(2-oxa-6-azaspiro[3.3]hept-6-yl)phenyl]-4,5-dihydro-3H-2,3-benzodiazepine-3-carboxamide] are 0.11 µM and 0.02 µM.
On the same counts, the results for `CNC(=O)N1N=C(c2ccc(N3[C@@H]4CC[C@H]3CC(=O)C4)cc2)c2cc(OC)c(OC)cc2C[C@H]1C` [Example 6.1, (4R)-7,8-dimethoxy-N,4 dimethyl-1-[4-(3-oxo-8-azabicyclo[3.2.1]oct-8-yl)phenyl]-4,5-dihydro-3H-2,3-benzodiazepine-3-carboxamide] are 0.45 µM and 1.23 µM.
With `CNC(=O)N1N=C(c2ccc(N3[C@@H]4CC[C@H]3CC(=O)C4)cc2)c2cc(OC)c(OC)cc2C[C@@H]1C` [Example 6.2, (4S)-7,8-dimethoxy-N,4-dimethyl-1-[4-(3-oxo-8-azabicyclo[3.2.1]oct-8-yl)phenyl]-4,5-dihydro-3H-2,3-benzodiazepine-3-carboxamide], the IC50 worked out at 0.05 µM in experiment [1] and 0.02 µM in experiment [2].
